# Assay results as given in patent US20240115549A1, “TREATMENT OF MENTAL DISORDERS” (GH Research Ireland Limited, priority 2022, published 2024).
# “Also recorded” adds a separate entry of the source.
# Legend:
# [1] = LC-MS/MS of 5-MeO-DMT, bufotenine and 5-MIAA in breastmilk, serum and urine of a treated PPD patient; infant dose estimates
# human hepatocytes [2] = assay: Metabolic stability in Hprel human hepatocyte co-culture; assay type: in vitro ADME; details: for Half-life / In vitro intrinsic clearance: human hepatocytes, 1 μM; for Predicted hepatic extraction ratio: human, Hprel HumanPool human hepatocyte co-culture; for Disappearance with stromal cell controls: stromal cells
# Description: The incubations were performed using 1 and 10 μM initial concentrations and sampling at 0, 1, 2, 4, 8, 24, 48, and 72 hours (h) time points. The samples were analysed using UPLC/QE-orbitrap-MS.
# The remaining LC/MS peak areas detected for test compounds after each incubation time point with Hprel co-culture assay, relative to corresponding 0 min incubation samples, are shown in the tables below.
# human hepatocytes [3] = assay: Metabolism of 5-MeO-DMT in human hepatocytes in suspension; assay type: in vitro ADME; details: 5-MeO-DMT free base 10 μM incubated up to 120 minutes
# Description: All samples were stored at −80° C. (nominal) prior to analysis.
# Appropriate blank and control samples were also analysed. […] (nominal).
# human plasma protein = assay: Plasma binding of 5-MIAA; assay type: in vitro ADME
# Description: Binding to human plasma protein was determined. Reported are the unbound fraction (fu) for three replicates as well as the mean unbound fraction, the standard deviation and the mean % recovery (Table 8).
# [4] = 5 kg infant, three feeds of 250 ml
# [5] = 1.0 hrs after last dose, second PPD patient, inhaled 5-MeO-DMT, LC-MS/MS
# [6] = 2.5 hrs after last dose, second PPD patient, inhaled 5-MeO-DMT, LC-MS/MS
# [7] = 8.5 hrs after last dose, second PPD patient, inhaled 5-MeO-DMT, LC-MS/MS
# [8] = 120.0 hrs after last dose, second PPD patient, inhaled 5-MeO-DMT, LC-MS/MS
# [9] = timepoint −24.0 hrs (pre-dosing), second PPD patient, inhaled 5-MeO-DMT 6 mg then 12 mg, LC-MS/MS
# [10] = serum, 1.0 hrs after last dose, second PPD patient, inhaled 5-MeO-DMT, LC-MS/MS
# [11] = urine, 2.5 hrs after last dose, second PPD patient, inhaled 5-MeO-DMT, LC-MS/MS
smiles,measurement,setting,value
"COc1ccc2[nH]cc(CC(=O)O)c2c1 [5-MIAA, 5-methoxyindole-3-acetic acid]",DID per kg infant weight,[1]; [4],0.001377 mg/kg/day
same,Total exposure of the infant (DID),[1]; [4],0.006886 mg/day
same,Concentration in breast milk,[1]; 1 hour after last dose (6 mg + 12 mg 5-MeO-DMT),13.9452 ng/mL
same,Peak urine concentration relative to serum,[1]; 2.5 hours,approx. 127 times
same,Concentration in breast milk,[1]; 2.5 hours after last dose,13.2409 ng/mL
same,Urine concentration,[1]; 2.5 hours after last dose,12 980 501 pg/ml
same,Concentration in breast milk,[1]; 8.5 hours after last dose,0.3594 ng/mL
same,Breastmilk concentration,[1]; [5],13945.2 pg/mL
same,Breastmilk concentration,[1]; [6],13240.9 pg/mL
same,Breastmilk concentration,[1]; [7],359.4 pg/mL
same,Breastmilk concentration,[1]; [8],BLQ
same,Breastmilk concentration,[1]; [9],BLQ
same,concentration at 24 h,"[1]; female, human, breast milk, inhaled",0.0355 ng/mL
same,concentration at 2.5 h,"[1]; female, human, serum, inhaled",102 ng/mL
same,concentration at 24 h,"[1]; female, human, serum, inhaled",0.271 ng/mL
same,concentration at 120 h,"[1]; female, human, serum, inhaled",0.0671 ng/mL
same,concentration at 2.5 h,"[1]; female, human, urine, inhaled",~13000 ng/mL
same,concentration at 8.5 h,"[1]; female, human, urine, inhaled",292 ng/mL
same,concentration at 24 h,"[1]; female, human, urine, inhaled",18.6 ng/mL
same,concentration at 120 h,"[1]; female, human, urine, inhaled",9.44 ng/mL
same,Serum concentration,[1]; [10],263.092 ng/mL
same,Urine concentration,[1]; [11],12980501 pg/mL
same,Relative LC/MS peak area,"human hepatocytes [2]; 1 μM Hepatocytes, 1 h",98%
same,Relative LC/MS peak area,"human hepatocytes [2]; 1 μM Hepatocytes, 2 h",100%
same,Relative LC/MS peak area,"human hepatocytes [2]; 1 μM Hepatocytes, 4 h",99%
same,Relative LC/MS peak area,"human hepatocytes [2]; 1 μM Hepatocytes, 8 h",95%
same,Relative LC/MS peak area,"human hepatocytes [2]; 1 μM Hepatocytes, 24 h",99%
same,Relative LC/MS peak area,"human hepatocytes [2]; 1 μM Hepatocytes, 48 h",88%
same,Relative LC/MS peak area,"human hepatocytes [2]; 1 μM Hepatocytes, 72 h",82%
same,Relative LC/MS peak area,"human hepatocytes [2]; 1 μM Stromal cells, 4 h",103%
same,Relative LC/MS peak area,"human hepatocytes [2]; 1 μM Stromal cells, 8 h",107%
same,Relative LC/MS peak area,"human hepatocytes [2]; 1 μM Stromal cells, 24 h",108%
same,Relative LC/MS peak area,"human hepatocytes [2]; 1 μM Stromal cells, 48 h",111%
same,Relative LC/MS peak area,"human hepatocytes [2]; 1 μM Stromal cells, 72 h",135%
same,Relative LC/MS peak area,"human hepatocytes [2]; 10 μM Hepatocytes, 1 h",97%
same,Relative LC/MS peak area,"human hepatocytes [2]; 10 μM Hepatocytes, 2 h",100%
same,Relative LC/MS peak area,"human hepatocytes [2]; 10 μM Hepatocytes, 4 h",103%
same,Relative LC/MS peak area,"human hepatocytes [2]; 10 μM Hepatocytes, 8 h",96%
same,Relative LC/MS peak area,"human hepatocytes [2]; 10 μM Hepatocytes, 24 h",96%
same,Relative LC/MS peak area,"human hepatocytes [2]; 10 μM Hepatocytes, 48 h",86%
same,Relative LC/MS peak area,"human hepatocytes [2]; 10 μM Hepatocytes, 72 h",75%
same,Relative LC/MS peak area,"human hepatocytes [2]; 10 μM Stromal cells, 4 h",101%
same,Relative LC/MS peak area,"human hepatocytes [2]; 10 μM Stromal cells, 8 h",106%
same,Relative LC/MS peak area,"human hepatocytes [2]; 10 μM Stromal cells, 24 h",97%
same,Relative LC/MS peak area,"human hepatocytes [2]; 10 μM Stromal cells, 48 h",103%
same,Relative LC/MS peak area,"human hepatocytes [2]; 10 μM Stromal cells, 72 h",115%
same,Remaining abundance after 72 h,"human hepatocytes [2]; hepatocytes, 1 and 10 μM",75-82%
same,Half-life,human hepatocytes [2],15 400 min
same,In vitro intrinsic clearance,human hepatocytes [2],0.15 μl/min/million cells
same,Predicted hepatic extraction ratio,human hepatocytes [2],2%
same,Metabolic turnover,human hepatocytes [2]; in the presence of hepatocytes,low metabolic turnover
same,Disappearance with stromal cell controls,human hepatocytes [2],no disappearance
same,Relative Proportion of compounds identified,human hepatocytes [3],about 60%
same,Relative Proportion of compounds identified,human hepatocytes [3]; listed as 5-Methoxyindole acetic acid (5-MIAA),61%
same,Mean % Recovery,human plasma protein,81.4%
same,Mean fu,human plasma protein,0.502
same,Plasma binding (mean fraction unbound),human plasma protein,~50%
same,"Unbound fraction (fu), Replicate 1",human plasma protein,0.499
same,"Unbound fraction (fu), Replicate 2",human plasma protein,0.462
same,"Unbound fraction (fu), Replicate 3",human plasma protein,0.544
COc1ccc2[nH]cc(CC[N+](C)(C)[O-])c2c1 [5-MeO-DMT-N-oxide],Relative Proportion of compounds identified,human hepatocytes [3],1%
"COc1ccc2[nH]cc(CCO)c2c1 [5-methoxytryptophol, 5-Methoxyindole-3-ethanol]",Relative LC/MS peak area,"human hepatocytes [2]; 1 μM Hepatocytes, 1 h",79%
same,Relative LC/MS peak area,"human hepatocytes [2]; 1 μM Hepatocytes, 2 h",57%
same,Relative LC/MS peak area,"human hepatocytes [2]; 1 μM Hepatocytes, 4 h",33%
same,Relative LC/MS peak area,"human hepatocytes [2]; 1 μM Hepatocytes, 8 h",10%
same,Relative LC/MS peak area,"human hepatocytes [2]; 1 μM Hepatocytes, 24 h",0%
same,Relative LC/MS peak area,"human hepatocytes [2]; 1 μM Hepatocytes, 48 h",0%
same,Relative LC/MS peak area,"human hepatocytes [2]; 1 μM Hepatocytes, 72 h",0%
same,Relative LC/MS peak area,"human hepatocytes [2]; 1 μM Stromal cells, 4 h",97%
same,Relative LC/MS peak area,"human hepatocytes [2]; 1 μM Stromal cells, 8 h",107%
same,Relative LC/MS peak area,"human hepatocytes [2]; 1 μM Stromal cells, 24 h",94%
same,Relative LC/MS peak area,"human hepatocytes [2]; 1 μM Stromal cells, 48 h",102%
same,Relative LC/MS peak area,"human hepatocytes [2]; 1 μM Stromal cells, 72 h",104%
same,Relative LC/MS peak area,"human hepatocytes [2]; 10 μM Hepatocytes, 1 h",87%
same,Relative LC/MS peak area,"human hepatocytes [2]; 10 μM Hepatocytes, 2 h",81%
same,Relative LC/MS peak area,"human hepatocytes [2]; 10 μM Hepatocytes, 4 h",68%
same,Relative LC/MS peak area,"human hepatocytes [2]; 10 μM Hepatocytes, 8 h",42%
same,Relative LC/MS peak area,"human hepatocytes [2]; 10 μM Hepatocytes, 24 h",1%
same,Relative LC/MS peak area,"human hepatocytes [2]; 10 μM Hepatocytes, 48 h",0%
same,Relative LC/MS peak area,"human hepatocytes [2]; 10 μM Hepatocytes, 72 h",0%
same,Relative LC/MS peak area,"human hepatocytes [2]; 10 μM Stromal cells, 4 h",99%
same,Relative LC/MS peak area,"human hepatocytes [2]; 10 μM Stromal cells, 8 h",105%
same,Relative LC/MS peak area,"human hepatocytes [2]; 10 μM Stromal cells, 24 h",86%
same,Relative LC/MS peak area,"human hepatocytes [2]; 10 μM Stromal cells, 48 h",98%
same,Relative LC/MS peak area,"human hepatocytes [2]; 10 μM Stromal cells, 72 h",104%
same,Half-life,human hepatocytes [2],142 min
same,In vitro intrinsic clearance,human hepatocytes [2],16.2 μl/min/million cells
same,Predicted hepatic extraction ratio,human hepatocytes [2],67%
same,Metabolic turnover,human hepatocytes [2]; in the presence of hepatocytes,high metabolic turnover
same,Time to complete disappearance,human hepatocytes [2]; in the presence of hepatocytes,≤ 24 h
same,Disappearance with stromal cell controls,human hepatocytes [2],no disappearance
same,Relative Proportion of compounds identified,human hepatocytes [3],25%
CN(C)CCc1c[nH]c2ccc(O)cc12 [bufotenine],Detection in breastmilk,[1]; any time point,not detected; also recorded: absence
same,Detection in serum,[1]; any time point,not detected
same,Breastmilk concentration,[1]; [5],BLQ
same,Breastmilk concentration,[1]; [6],BLQ
same,Breastmilk concentration,[1]; [7],BLQ
same,Breastmilk concentration,"[1]; 24.0 hrs after last dose, second PPD patient, inhaled 5-MeO-DMT, LC-MS/MS",BLQ
same,Breastmilk concentration,[1]; [8],BLQ
same,Breastmilk concentration,[1]; [9],BLQ
same,Serum concentration,[1]; [10],BLQ
same,Serum concentration,"[1]; serum, 2.5 hrs after last dose, second PPD patient, inhaled 5-MeO-DMT, LC-MS/MS",BLQ
same,Serum concentration,"[1]; serum, 24.0 hrs after last dose, second PPD patient, inhaled 5-MeO-DMT, LC-MS/MS",BLQ
same,Serum concentration,"[1]; serum, 120.0 hrs after last dose, second PPD patient, inhaled 5-MeO-DMT, LC-MS/MS",BLQ
same,Serum concentration,"[1]; serum, timepoint −24.0 hrs (pre-dosing), second PPD patient, inhaled 5-MeO-DMT 6 mg then 12 mg, LC-MS/MS",BLQ
same,Urine concentration,[1]; [11],32.3 pg/mL
same,Urine concentration,"[1]; urine, 8.5 hrs after last dose, second PPD patient, inhaled 5-MeO-DMT, LC-MS/MS",BLQ
same,Urine concentration,"[1]; urine, 24.0 hrs after last dose, second PPD patient, inhaled 5-MeO-DMT, LC-MS/MS",BLQ
same,Urine concentration,"[1]; urine, 120.0 hrs after last dose, second PPD patient, inhaled 5-MeO-DMT, LC-MS/MS",BLQ
same,Urine concentration,"[1]; urine, timepoint −24.0 hrs (pre-dosing), second PPD patient, inhaled 5-MeO-DMT 6 mg then 12 mg, LC-MS/MS",BLQ
same,Relative Proportion of compounds identified,human hepatocytes [3],5%
"CC(=O)CC(c1ccccc1)c1c(O)c2ccccc2oc1=O (centres unmarked) [Warfarin, reference compound]",Mean % Recovery,human plasma protein,78.1%
same,Mean fu,human plasma protein,0.0377
same,"Unbound fraction (fu), Replicate 1",human plasma protein,0.0418
same,"Unbound fraction (fu), Replicate 2",human plasma protein,0.0356
same,"Unbound fraction (fu), Replicate 3",human plasma protein,0.0358
